Patent US20230303540A1 (Merck Sharp & Dohme LLC, priority 2020, published 2023)

Molecular target: GST-tagged truncated human mutant G2019S LRRK2 (Homo sapiens, UniProt Q5S007, G2019S)
Assay: LRRK2 G2019S Km ATP LanthaScreen assay
Type: biochemical
Conditions: 134 μM ATP (Km ATP), LRRKtide substrate, mean IC50 values; read-out: LRRK2 pIC50 (converted)
Summary of the method: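 LanthaScreen TR-FRET read with fluorescein-LRRKtide and 134 μM ATP (Km) in Tris pH 8.5/10 mM MgCl2 buffer. The enzyme was preincubated 15 min with compound at room temperature, and the reaction ran 90 min at ambient temperature. Stopped with EDTA plus Tb anti-phospho-LRRKtide antibody; the 520/495 nm ratio gave a 4-parameter logistic IC50, mean of several runs.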

SMILES	IC50
OC1COCC12CCN(c1cc3nc(Nc4cnn(C5CC5(F)F)c4Cl)ncc3cc1Cl)CC2 (single isomer, unassigned) [Ex-3.56]	3.56 nM
CC1(N2CCN(c3cc4nc(Nc5cnn(C(C)(C)C)c5)ncc4cc3Cl)CC2)COC1 [Ex-4.46, N-(1-tert-butyl-1H-pyrazol-4-yl)-6-chloro-7-[4-(3-methyloxetan-3-yl)piperazin-1-yl]quinazolin-2-amine]	0.792 nM
CC1(N2CCN(c3cc4nc(Nc5cnn(C6(C)CC6)c5Cl)ncc4cc3Cl)CC2)CCOC1 (centres unmarked) [Ex-12.4]	3.04 nM
OC1COCC1N1CCN(c2cc3nc(Nc4cnn(C56CC(F)(C5)C6)c4Cl)ncc3cc2Cl)CC1 (single isomer, unassigned) [Ex-3.58, (3R,4R) or (3S,4S) 4-(4-(6-chloro-2-((5-chloro-1-(3-fluorobicyclo[1.1.1]pentan-1-y])-1H-pyrazol-4-yl)amino)quinazolin-7-yl)piperazin-1-yl) tetrahydrofuran-3-ol]	0.44 nM
FC1(F)CC(N2CCN(c3cc4nc(Nc5cnn(C6CC6)c5Cl)ncc4cc3Cl)CC2)C1 [Ex-4.71, 6-chloro-N-(5-chloro-1-cyclopropyl-1H-pyrazol-4-yl)-7-(4-(3,3-difluorocyclobutyl)piperazin-1-yl)quinazolin-2-amine]	11.1 nM
CC1CN(c2cc3nc(Nc4cnn(C5CC5)c4Cl)ncc3cc2Cl)CCN1C1COCC1O (single isomer, unassigned) [Ex-12.6, (3S,4S) or (3R, 4R)-4-((R) or (S)-4-(4-(6-chloro-2-((5-chloro-1-cyclopropyl-1H-pyrazol-4-yl)amino)quinazolin-7-yl)-2-methylpiperazin-1-yl)tetrahydrofuran-3-ol]	13.6 nM
Cc1c(Nc2ncc3cc(Cl)c(N4CCN(C5(C)COCC5O)CC4)cc3n2)cnn1C1CC1 (single isomer, unassigned) [Ex-6.22, (3S,4S) or (3R,4R) 4-(4-{6-chloro-2-[(1-cyclopropyl-5-methyl-1H-pyrazol-4-yl)amino]quinazolin-7-yl}piperazin-1-yl)-4-methyloxolan-3-ol]	33.5 nM
CN1CC2CC1CN2c1cc2nc(Nc3cnn(C4(C)CC4)c3Cl)ncc2cc1Cl (centres unmarked) [Ex-4.35, 6-chloro-N-[5-chloro-1-(1-methylcyclopropyl)-1H-pyrazol-4-yl]-7-(5-methyl-2,5-diazabicyclo[2.2.1]heptan-2-yl)quinazolin-2-amine]	4.91 nM
CC(C)(C)Cn1cc(Nc2ncc3cc(Cl)c(N4CCN(C5(C)COC5)CC4)cc3n2)cn1 [Ex-4.64, 6-chloro-N-[1-(2,2-dimethylpropyl)-1H-pyrazol-4-yl]-7-[4-(3-methyloxetan-3-yl)piperazin-1-yl]quinazolin-2-amine]	9.73 nM
Cc1cc2cnc(Nc3cnn(C4CC4(F)F)c3C)nc2cc1N1CCN(C2COCC2O)CC1 (single isomer, unassigned) [Ex-5.2, (3S,4S) or (3R,4R) 4-(4-(2-((1-(2,2-(R) or (S)difluorocyclopropyl)-5-methyl-1H-pyrazol-4-yl)amino)-6-methylquinazolin-7-yl)piperazin-1-yl)tetrahydrofuran-3-ol]	0.45 nM
O[C@@H]1COC[C@@H]1N1CCN(c2nc3nc(Nc4cnn(C5CC5)c4Cl)ncc3cc2Cl)CC1 (single isomer, unassigned) [Ex-16.1, (3S,4S) or (3R, 4R)-4-(4-(6-Chloro-2-((5-chloro-1-cyclopropyl-1H-pyrazol-4-yl)amino)pyrido[2,3-d]pyrimidin-7-yl)piperazin-1-yl)tetrahydrofuran-3-ol]	15.6 nM
CC1(O)C2CC1CN(c1cc3nc(Nc4cnn(C5CC5)c4Cl)ncc3cc1Cl)C2 (centres unmarked) [Ex-1.41, 3-{6-chloro-2-[(5-chloro-1-cyclopropyl-1H-pyrazol-4-y)amino]quinazolin-7-yl}-6-methyl-3-azabicyclo[3.1.1]heptan-6-ol]	8.93 nM
Cc1c(Nc2ncc3ccc(N4C(=O)OC[C@@H]4C)cc3n2)cnn1C1CCOCC1 [Ex-1.48, (4S)-4-methyl-3-(2-{[5-methyl-1-(oxan-4-yl)-1H-pyrazol-4-yl]amino}quinazolin-7-yl)-1,3-oxazolidin-2-one]	0.625 nM
CN1CCN(c2cc3nc(Nc4cnn(C)c4Cl)ncc3cc2Cl)CC1 [Ex-11.1, 6-Chloro-N-(5-chloro-1-methyl-1H-pyrazol-4-yl)-7-(4-methylpiperazin-1-yl)quinazolin-2-amine]	11.7 nM
N#CCCN1CCN(c2cc3nc(Nc4cnn(C5CC5)c4Cl)ncc3cc2Cl)CC1 [Ex-1.29, 3-(4-{6-chloro-2-[(5-chloro-1-cyclopropyl-1H-pyrazol-4-yl)amino]quinazolin-7-yl}piperazin-1-yl)propanenitrile]	2.78 nM
Cc1c(N2CCN(C3(C)COC3)CC2)c(Cl)cc2cnc(Nc3cnn(CC(F)(F)F)c3)nc12 [Ex-4.3, 6-Chloro-8-methyl-7-(4-(3-methyloxetan-3-yl)piperazin-1-yl)-N-(1-(2,2,2-trifluoroethyl)-1H-pyrazol-4-yl)quinazolin-2-amine]	3.36 nM

SMILES	IC50
CC1(N2CCN(c3cc4nc(Nc5cnn(C6(C)CC6)c5Cl)ncc4cc3Cl)CC2)COC1 [Ex-4.22, 6-chloro-N-[5-chloro-1-(1-methylcyclopropyl)-1H-pyrazol-4-yl]-7-[4-(3-methyloxetan-3-yl)piperazin-1-yl]quinazolin-2-amine]	0.625 nM
CC1(O)CC2(CN(c3cc4nc(Nc5cnn(C6(C)CC6)c5Cl)ncc4cc3Cl)C2)C1 [Ex-4.27, 2-(6-chloro-2-{[5-chloro-1-(1-methylcyclopropyl)-1H-pyrazol-4-yl]amino}quinazolin-7-yl)-6-methyl-2-azaspiro[3.3]heptan-6-ol]	1.6 nM
CN1CC2(C1)CN(c1cc3nc(Nc4cnn(C5(C)CC5)c4Cl)ncc3cc1Cl)C2 [Ex-4.37, 6-chloro-N-[5-chloro-1-(1-methylcyclopropyl)-1H-pyrazol-4-yl]-7-(6-methyl-2,6-diazaspiro[3.3.]heptan-2-yl)quinazolin-2-amine]	1.24 nM
O[C@H]1CCN(c2cc3nc(Nc4cnn(CC(F)F)c4Cl)ncc3cc2Cl)C1 [Ex-1.17, (3S)-1-(6-chloro-2-{[5-chloro-1-(2,2-difluoroethyl)-1H-pyrazol-4-yl]amino}quinazolin-7-yl)pyrrolidin-3-ol]	9.26 nM
CC1(N2CCN(c3cc4nc(Nc5cnn(C(F)F)c5Cl)ncc4cc3Cl)CC2)COCC1O (single isomer, unassigned) [Ex-3.59, (3R,4R) or (3S,4S) 4-(4-(6-chloro-2-((5-chloro-1-(difluoromethyl)-1H-pyrazol-4-yl)amino)quinazolin-7-yl)piperazin-1-yl)-4-methyltetrahydrofuran-3-ol]	0.178 nM
CC1(O)CCN(c2cc3nc(Nc4cnn(C56CC(C5)C6)c4)ncc3cc2Cl)CC1 [Ex-6.11, 1-(2-{[1-(bicyclo[1.1.1]pentan-1-yl)-1H-pyrazol-4-yl]amino}-6-chloroquinazolin-7-yl)-4-methylpiperidin-4-ol]	0.808 nM
Cc1c(Nc2ncc3cc(Cl)c(N4CCN(C)C(C)(C)C4)cc3n2)cnn1CC(F)F [Ex-1.3]	180 nM
C[C@H]1COC(=O)N1c1ccc2cnc(Nc3cn(C4CCCCC4)nc3Cl)nc2c1 [Ex-10.1, (S)-3-(2-((3-Chloro-1-cyclohexyl-1H-pyrazol-4-yl)amino)quinazolin-7-yl)-4-methyloxazolidin-2-one]	7.01 nM
C[C@@H]1CN(C2COC2)CC[C@@H]1n1ncc(Nc2ncc3ccc(N4C(=O)OC[C@@H]4C)cc3n2)c1Cl [Ex-8.11, (4.5)-3-[2-({5-chloro-1-[(3R,4S)-3-methyl-1-(oxetan-3-yl)piperidin-4-yl]-1H-pyrazol-4-yl}amino)quinazolin-7-yl]-4-methyl-1,3-oxazolidin-2-one]	1.59 nM
CCn1ncc(Nc2ncc3ccc(N4C(=O)OCC4C4CC4)cc3n2)c1C (single isomer, unassigned) [Ex-7.16, (R) or (S) 4-cyclopropyl-3-{2-[(1-ethyl-5-methyl-1H-pyrazol-4-yl)amino]quinazolin-7-yl}-1,3-oxazolidin-2-one]	0.625 nM
CC(C)(O)CN1CCN(c2cc3nc(Nc4cnn(C5CC5)c4Cl)ncc3cc2Cl)CC1 [Ex-1.31, 1-(4-{6-chloro-2-[(5-chloro-1-cyclopropyl-1H-pyrazol-4-yl)amino]quinazolin-7-yl}piperazin-1-yl)-2-methylpropan-2-ol]	10.1 nM
CC1CN(C2COCC2O)CCN1c1cc2nc(Nc3cnn(C4CC4)c3Cl)ncc2cc1Cl (single isomer, unassigned) [Ex-12.9, (3S,4S) or (3R, 4R)-4-((R) or (S)-4-(6-chloro-2-((5-chloro-1-cyclopropyl-1H-pyrazol-4-yl)amino)quinazolin-7-yl)-3-methylpiperazin-1-yl)tetrahydrofuran-3-ol]	8.64 nM
O[C@@H]1COC[C@@H]1N1CCN(c2cc3nc(Nc4cnn(C5CC5)c4Cl)ncc3cc2Cl)CC1 (single isomer, unassigned) [Ex-3.52, (3R,4R) or (3S,4S) 4-(4-{6-chloro-2-[(5-chloro-1-cyclopropyl-1H-pyrazol-4-yl)amino]quinazolin-7-yl}piperazin-1-yl)oxolan-3-ol]	0.887 nM
CC1(n2ncc(Nc3ncc4cc(Cl)c(N5CCN(CCC#N)CC5)cc4n3)c2Cl)CC1 [Ex-3.20, 3-[4-(6-chloro-2-{[5-chloro-1-(1-methylcyclopropyl)-1H-pyrazol-4-yl]amino}quinazolin-7-yl)piperazin-1-yl]propanenitrile]	1.07 nM
C[C@H]1COC(=O)N1c1ccc2cnc(Nc3cnn4c3CCCC4)nc2c1 [Ex-8.13, (4S)-4-methyl-3-{2-[(4,5,6,7-tetrahydropyrazolo[1,5-a]pyridin-3-yl)amino]quinazolin-7-yl}-1,3-oxazolidin-2-one]	0.625 nM
FC1(F)CN(C2CCN(c3cc4nc(Nc5cnn(C6CC6)c5Cl)ncc4cc3Cl)CC2)C1 [Ex-1.25, 6-chloro-N-(5-chloro-1-cyclopropyl-1H-pyrazol-4-yl)-7-[4-(3,3-difluoroazetidin-1-yl)piperidin-1-yl]quinazolin-2-amine]	4.33 nM
